Measurements as given in EP2138545B1, “USE OF PORPHYRAZINE DERIVATIVE AS SEMICONDUCTOR” (Hiroshima University, priority 2007, dated 2008).
In brackets after ≈: the same amount, converted by molar mass. Like-named read-outs stand apart in the source and are kept apart here.

Experiment: Measurement of solubility in chloroform and in dichloromethane (solvent added by 0.1 mL until the whole amount dissolved)
Format: physicochemical
Conditions: for solubility: organic solvent or mixture, thermodynamic from solid
Description: Respective compounds indicated by "6" and "7" were subjected to measurements of solubility in chloroform and in dichloromethane. In the measurements, approximately 3mg of a compound was prepared in advance by a precise weighing. Then, a solvent was added by 0.1mL to the compound and thereafter stirred or subjected to ultrasonic agitation. The solubility (mg/mL) was determined from an amount of the solvent used in dissolving a whole amount of the compound.

Row | solubility (solvent chloroform, read-out: solubility in chloroform) [µg/mL] | solubility (solvent dichloromethane, read-out: solubility in dichloromethane) [µg/mL] | solubility in dichloromethane (solvent dichloromethane) [µg/mL] | Compound | solubility in chloroform (solvent chloroform) [µg/mL]
1 | < 20 | < 20 | – | c1cc2c(s1)-c1nc-2nc2[nH]c(nc3nc(nc4[nH]c(n1)c1ccsc41)-c1ccsc1-3)c1ccsc21 [unsubstituted phthalocyanine derivative, reference compound] | –
2 | – | – | – | CCCCCCc1cc2c(s1)-c1nc-2nc2[nH]c(nc3nc(nc4[nH]c(n1)c1cc(CCCCCC)sc41)-c1cc(CCCCCC)sc1-3)c1cc(CCCCCC)sc21 [compound 6, Tetra(hexylthieno)porphyrazine] | 29000 (≈ 33100 µM)
3 | – | – | 10000 | CCCCCCc1cc2c(s1)C1=NC2=Nc2c3sc(CCCCCC)cc3c3[n]2[Cu][n]2c(c4cc(CCCCCC)sc4c2=NC2=NC(=N3)c3sc(CCCCCC)cc32)=N1 [compound 7, Copper (II) complex] | 11000
